# Test results published in US10131679B2, “Substituted dihydropyrrolopyrazole compound” (UBE INDUSTRIES, LTD., priority 2014, dated 2018).
# Columns and labels:
# [1] = target: T1, CDK2 (Homo sapiens, UniProt P24941); test: CDK2 enzyme inhibition test; format: biochemical; settings: Ki=IC50/(1+S/Km); 33P bound to MBP, [γ-33P]ATP, 30° C. for 20 minutes; read-out: Ki value of CDK2 inhibitory activity
# T1 construct: purchased Invitrogen Corp. PV3267
# Procedure, shortened: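 Commercial CDK2 with MBP substrate and [γ-33P]ATP (500 μM solution, before mixing) in HEPES pH 7.4 buffer with DTT, Triton X-100 and MgCl2; 20 min at 30 °C. TCA-precipitated 33P-MBP counted by liquid scintillation; IC50 from inhibition of 33P incorporation, Ki = IC50/(1+S/Km).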
# [2] = target: T2, PAK4 (Homo sapiens, UniProt O96013); test: PAK4 enzyme inhibition test; format: biochemical; settings: Ki=IC50/(1+S/Km); 33P bound to MBP, [γ-33P]ATP, 30° C. for 20 minutes; read-out: Ki value of PAK4 inhibitory activity
# T2 construct: purchased Invitrogen Corp. PV4212
# T2 sequence (O96013 whole entry): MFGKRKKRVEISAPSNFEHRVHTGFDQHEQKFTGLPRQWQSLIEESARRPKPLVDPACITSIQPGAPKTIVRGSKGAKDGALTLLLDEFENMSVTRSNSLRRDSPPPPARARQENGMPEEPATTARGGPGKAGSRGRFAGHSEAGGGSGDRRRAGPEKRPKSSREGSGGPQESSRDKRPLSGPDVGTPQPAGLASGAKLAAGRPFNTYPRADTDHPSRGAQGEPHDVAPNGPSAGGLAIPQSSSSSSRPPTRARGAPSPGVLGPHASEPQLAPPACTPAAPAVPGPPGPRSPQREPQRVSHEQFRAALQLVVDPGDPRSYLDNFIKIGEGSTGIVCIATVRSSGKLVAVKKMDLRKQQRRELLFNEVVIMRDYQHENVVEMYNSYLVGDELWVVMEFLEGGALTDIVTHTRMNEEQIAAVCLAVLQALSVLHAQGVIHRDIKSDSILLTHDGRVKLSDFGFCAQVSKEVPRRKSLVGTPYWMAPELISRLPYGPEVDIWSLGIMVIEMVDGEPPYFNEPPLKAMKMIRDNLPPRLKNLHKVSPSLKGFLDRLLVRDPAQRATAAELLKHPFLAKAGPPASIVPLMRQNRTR
# Protocol: PAK4 Enzyme Inhibition Test
# The preparation of a buffer solution was performed by mixing a trishydroxyaminomethane buffer solution (Tris buffer solution) (pH 7.5), DTT, Triton X-100, MgCl2, ethylene glycol bis(β-aminoethyl ether)-N,N,N′,N′-tetraacetic acid (EGTA), (3-glycerol phosphate, and sodium orthovanadate(V). A 40 μM [γ-^33P]ATP solution was used by diluting a 10 mM ATP solution and a commercially available [γ-^33P]ATP solution (manufactured by PerkinElmer, Inc., Code No. NEG-302H) with the buffer solution. A PAK4 solution was used by diluting commercially available PAK4 (manufactured by Invitrogen Corp., Catalog No. PV4212) with the buffer solution. A substrate solution was used by diluting MBP with the buffer solution. As for the preparation of a reaction solution, the buffer solution, the 40 μM [γ-^33P]ATP solution, the PAK4 solution, and the substrate solution were mixed at 4° C. to obtain a reaction solution.
# PAK4 enzyme reaction was performed by adding 5 μL of a test compound solution prepared with 10% DMSO/90% injectable distilled water, and 45 μL of the reaction solution in a 1.5 mL microtube at 4° C. and reacting in the microtube at 30° C. for 20 minutes in a water bath incubator. After the reaction, a 10% aqueous TCA solution was added to each microtube while cooled to 4° C., and mixed to terminate the reaction. The resultant was left standing at 4° C. for 10 minutes and then centrifuged in a centrifuge, and the supernatant was discarded. Next, a 2% aqueous TCA solution was added, mixed, and then centrifuged in a centrifuge, and the supernatant was discarded. This washing operation was performed twice. After the washing, precipitates were dissolved in a 1 N aqueous NaOH solution, and the radioactivity was measured with a liquid scintillation counter.
# The calculation of the inhibitory activity of the test compound against PAK4 was performed as a test compound concentration inhibiting 50% of the amount of ^33P bound to MBP (IC50 value) by using EXSUS (version 8.0.0 or version 8.0.1, manufactured by CAC Exicare Corp.).
# The calculation of a Ki value was performed according to the following calculation expression. S means the concentration of ATP contained in the reaction solution, and Km means a Michaelis-Menten constant. Ki=IC50/(1+S/Km)
# [3] = tested on: mouse imiquimod-induced psoriasis model; test: Ear thickening suppression test using mouse imiquimod-induced psoriasis model; format: in vivo; settings: topical, 120 h, application of a 0.01% methanol solution for 4 days, thickness measured on day 5, BALB/c mice, read-out: rate of inhibition of increase in right auricle thickness
# Protocol: Ear Thickening Suppression Test Using Mouse Imiquimod-Induced Psoriasis Model
# An imiquimod-induced psoriasis model test was carried out by modifying the method of Leslie van der Fits et al. (J. Immunol. 182, 5836 (2009)). BALB/c mice were used (female, supplied by Charles River Laboratories Japan, Inc.) as laboratory animals. On the start day of the test, the thicknesses of the right auricles of the mice were measured with a thickness gauge (model SMD-565J manufactured by TECLOCK Corp.). A test compound solution or only a solvent was applied or orally administered, and after 60 minutes, 5 mg of imiquimod (Beselna Cream 5% manufactured by Mochida Pharmaceutical Co., Ltd.) was applied to the insides of the right auricles. The test compound solution or solvent administration and the imiquimod application were carried out for 4 days, and the thicknesses of the right auricles were measured again on day 5. When increase in the thicknesses of the right auricles of the solvent-administered group on day 5 was defined as 100%, the rate of inhibition of increase (%) at each dose of the test compound was calculated.
SMILES,Ki [1],Ki [2],inhibition in vivo at 0.01 % [3]
"CC(C)(CO)C(NC(=O)N1Cc2c(NC(=O)C3([Si](C)(C)C)CCC3)n[nH]c2C1(C)C)c1ccc(F)cc1 (stereo not shown) [IV-946, N-[1-(4-Fluorophenyl)-3-hydroxy-2,2-dimethylpropyl]-6,6-dimethyl-3-[1-(trimethylsilyl)cyclobutanecarboxamido]-4,6-dihydropyrrolo[3,4-c]pyrazole-5(1H)-carboxamide]",≥ 1 µM,≥ 0.5 µM,≥ 50%
"CC1(C)c2[nH]nc(NC(=O)C3([Si](C)(C)C)CCC3)c2CN1C(=O)N[C@H](CC1(O)CC1)c1ccccc1 [IV-743, (R)—N-[2-(1-Hydroxycyclopropyl)-1-phenylethyl]-6,6-dimethyl-3-[1-(trimethylsilyl)cyclobutanecarboxamido]-4,6-dihydropyrrolo[3,4-c]pyrazole-5(1H)-carboxamide]",≥ 1 µM,≥ 0.5 µM,≥ 50%
"CC(C)(O)C[C@@H](NC(=O)N1Cc2c(NC(=O)C3([Si](C)(C)C)CCC3)n[nH]c2C1(C)C)c1cccc(F)c1 [IV-911, (R)—N-[1-(3-Fluorophenyl)-3-hydroxy-3-methylbutyl]-6,6-dimethyl-3-[1-(trimethylsilyl)cyclobutanecarboxamido]-4,6-dihydropyrrolo[3,4-c]pyrazole-5(1H)-carboxamide]",≥ 1 µM,≥ 0.5 µM,≥ 50%
"CC(C)(CO)C(NC(=O)N1Cc2c(NC(=O)C3([Si](C)(C)C)CCC3)n[nH]c2C1(C)C)c1ccccc1 (single isomer, unassigned; (-)) [IV-673, (−)-N-(3-Hydroxy-2,2-dimethyl-1-phenylpropyl)-6,6-dimethyl-3-[1-(trimethylsilyl)cyclobutanecarboxamido]-4,6-dihydropyrrolo[3,4-c]pyrazole-5(1H)-carboxamide]",,≥ 0.5 µM,≥ 50%
"CC1(C)c2[nH]nc(NC(=O)C3([Si](C)(C)C)CCC3)c2CN1C(=O)NC(c1ccccc1)C1(CO)CCC1 (stereo not shown) [IV-718, N-{[1-(Hydroxymethyl)cyclobutyl](phenyl)methyl}-6,6-dimethyl-3-[1-(trimethylsilyl)cyclobutanecarboxamido]-4,6-dihydropyrrolo[3,4-c]pyrazole-5(1H)-carboxamide]",≥ 1 µM,≥ 0.5 µM,≥ 50%
"CC(C)(CO)C(NC(=O)N1Cc2c(NC(=O)C3([Si](C)(C)C)CCC3)n[nH]c2C1(C)C)c1ccccc1 (racemic) [IV-354, N-(3-Hydroxy-2,2-dimethyl-1-phenylpropyl)-6,6-dimethyl-3-[1-(trimethylsilyl)cyclobutanecarboxamido]-4,6-dihydropyrrolo[3,4-c]pyrazole-5(1H)-carboxamide]",,,≥ 50%
"CC[Si](C)(C)C1(C(=O)Nc2n[nH]c3c2CN(C(=O)[C@H](OC)c2ccccc2)C3(C)C)CCC1 [IV-1178, (R)-1-(Ethyldimethylsilyl)-N-[5-(2-methoxy-2-phenylacetyl)-6,6-dimethyl-1,4,5,6-tetrahydropyrrolo[3,4-c]pyrazol-3-yl] cyclobutanecarboxamide]",,,≥ 50%
"CO[C@@H](C(=O)N1Cc2c(NC(=O)C3([Si](C)(C)C)CCC3)n[nH]c2C1(C)C)c1ccccc1 [IV-1175, (R)—N-[5-(2-Methoxy-2-phenylacetyl)-6,6-dimethyl-1,4,5,6-tetrahydropyrrolo[3,4-c]pyrazol-3-yl]-1-(trimethylsilyl)cyclobutanecarboxamide]",,,≥ 50%

# Second part, led by results:
Ki [1],Ki [2],SMILES,inhibition in vivo at 0.01 % [3]
,≥ 0.5 µM,"COC(C(=O)N1Cc2c(NC(=O)C3([Si](C)(C)C)CCC3)n[nH]c2C1(C)C)c1cccc(F)c1 (stereo not shown) [IV-1404, N-{5-[2-(3-Fluorophenyl)-2-methoxyacetyl]-6,6-dimethyl-1,4,5,6-tetrahydropyrrolo[3,4-c]pyrazol-3-yl}-1-(trimethylsilyl)cyclobutanecarboxamide]",≥ 50%
≥ 1 µM,,"CC(C)(O)C[C@@H](NC(=O)N1Cc2c(NC(=O)C3([Si](C)(C)C)CCC3)n[nH]c2C1(C)C)c1ccc(F)cc1 [IV-939, (R)—N-[1-(4-Fluorophenyl)-3-hydroxy-3-methylbutyl]-6,6-dimethyl-3-[1-(trimethylsilyl)cyclobutanecarboxamido]-4,6-dihydropyrrolo[3,4-c]pyrazole-5(1H)-carboxamide]",≥ 50%
,≥ 0.5 µM,"CO[C@@H](C(=O)N1Cc2c(NC(=O)C3([Si](C)(C)C)CCC3)n[nH]c2C1(C)C)c1ccccc1F [IV-1383, (R)—N-{5-[2-(2-Fluorophenyl)-2-methoxyacetyl]-6,6-dimethyl-1,4,5,6-tetrahydropyrrolo[3,4-c]pyrazol-3-yl}-1-(trimethylsilyl)cyclobutanecarboxamide]",≥ 50%
≥ 1 µM,≥ 0.5 µM,"CC(C)(O)C[C@@H](NC(=O)N1Cc2c(NC(=O)C3([Si](C)(C)C)CCC3)n[nH]c2C1(C)C)c1ccccc1 [IV-299, (R)—N-(3-Hydroxy-3-methyl-1-phenylbutyl)-6,6-dimethyl-3-[1-(trimethylsilyl)cyclobutanecarboxamido]-4,6-dihydropyrrolo[3,4-c]pyrazole-5(1H)-carboxamide]",≥ 50%
,≥ 0.5 µM,"CC(C)(CO)C(NC(=O)N1Cc2c(NC(=O)C3([Si](C)(C)C)CCC3)n[nH]c2C1(C)C)c1cccc(F)c1 (stereo not shown) [IV-918, N-[1-(3-Fluorophenyl)-3-hydroxy-2,2-dimethylpropyl]-6,6-dimethyl-3-[1-(trimethylsilyl)cyclobutanecarboxamido]-4,6-dihydropyrrolo[3,4-c]pyrazole-5(1H)-carboxamide]",≥ 50%
≥ 1 µM,≥ 0.5 µM,"CC(C)O[C@@H](C(=O)N1Cc2c(NC(=O)C3([Si](C)(C)C)CCC3)n[nH]c2C1(C)C)c1ccccc1 [IV-1204, (R)—N-[5-(2-Isopropoxy-2-phenylacetyl)-6,6-dimethyl-1,4,5,6-tetrahydropyrrolo[3,4-c]pyrazol-3-yl]-1-(trimethylsilyl)cyclobutanecarboxamide]",≥ 50%
≥ 1 µM,,"CCCO[C@@H](C(=O)N1Cc2c(NC(=O)C3([Si](C)(C)C)CCC3)n[nH]c2C1(C)C)c1ccccc1 [IV-1196, (R)—N-[6,6-Dimethyl-5-(2-phenyl-2-propoxyacetyl)-1,4,5,6-tetrahydropyrrolo[3,4-c]pyrazol-3-yl]-1-(trimethylsilyl)cyclobutanecarboxamide]",≥ 50%
,≥ 0.5 µM,"CC1(C)c2[nH]nc(NC(=O)C3([Si](C)(C)C)CCC3)c2CN1C(=O)[C@H](OC1CC1)c1ccccc1 [IV-1208, (R)—N-[5-(2-Cyclopropoxy-2-phenylacetyl)-6,6-dimethyl-1,4,5,6-tetrahydropyrrolo[3,4-c]pyrazol-3-yl]-1-(trimethylsilyl)cyclobutanecarboxamide]",≥ 50%
,≥ 0.5 µM,"COC(C(=O)N1Cc2c(NC(=O)C3([Si](C)(C)C)CCC3)n[nH]c2C1(C)C)c1cccs1 (stereo not shown) [IV-1546, N-{5-[2-Methoxy-2-(thiophen-2-yl)acetyl]-6,6-dimethyl-1,4,5,6-tetrahydropyrrolo[3,4-c]pyrazol-3-yl}-1-(trimethylsilyl)cyclobutanecarboxamide]",≥ 50%
